In article PMC4094369 (Biochemical and biophysical research communications, 2013):
Values joined by “and” are separate entries in the source; they are usually repeats but may differ in a detail not shown here. Equal entries are not always repeated. “Also recorded” adds a separate entry of the source. Structures can show the parent of a compound that is named as a salt. Where two headings read alike, the source gives them in different places.

Columns and labels:
[1] = molecular target: T1, glutaminase (Homo sapiens, UniProt O94925); test: Glutaminase activity of analogs; type: biochemical; settings: for retention of biological (glutaminase) activity: analogs of chelerythrine, in words
T1 sequence (O94925 124-669 limits assumed): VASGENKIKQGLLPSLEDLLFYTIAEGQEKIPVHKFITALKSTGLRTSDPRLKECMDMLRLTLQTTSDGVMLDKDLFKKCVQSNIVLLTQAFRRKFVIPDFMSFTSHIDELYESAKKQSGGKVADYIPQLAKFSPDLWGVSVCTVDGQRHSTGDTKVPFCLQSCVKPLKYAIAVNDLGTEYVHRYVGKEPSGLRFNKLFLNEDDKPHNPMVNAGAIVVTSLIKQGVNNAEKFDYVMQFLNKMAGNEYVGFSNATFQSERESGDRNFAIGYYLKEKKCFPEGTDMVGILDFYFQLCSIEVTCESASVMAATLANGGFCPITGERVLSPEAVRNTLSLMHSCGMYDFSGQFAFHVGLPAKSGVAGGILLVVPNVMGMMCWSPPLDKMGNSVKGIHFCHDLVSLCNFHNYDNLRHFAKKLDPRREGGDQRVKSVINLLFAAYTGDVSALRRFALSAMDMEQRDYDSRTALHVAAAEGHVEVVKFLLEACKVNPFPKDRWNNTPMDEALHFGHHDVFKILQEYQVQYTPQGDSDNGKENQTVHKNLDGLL

[2] = molecular target: T2, glutaminase (hKGAΔ1) (Homo sapiens, UniProt O94925); test: Inactivation studies: time-dependent inhibition of glutaminase; type: biochemical; settings: for time- and concentration-dependence of glutaminase inactivation: in words; for KI (inactivation): read-out: Ki (inactivation studies)
T2 sequence (O94925 124-669 limits assumed): T1 sequence (O94925 124-669 limits assumed)

[3] = molecular target: T3, hKGAΔ1 (GLS1) (Homo sapiens, UniProt O94925); test: Glutaminase activity, Amplex UltraRed fluorescent assay; type: biochemical
T3 sequence (O94925 124-669 limits assumed): T1 sequence (O94925 124-669 limits assumed)

[4] = molecular target: T2, glutaminase (hKGAΔ1); type: biochemical; settings: for Ki: Ki (competition studies), presence of glutamine; for Mode of inhibition: competition studies, average of 2–4 determinations
[5] = Solubility; type: physicochemical; settings: in words, no data shown
[6] = molecular target: T4, mouse liver glutaminase (mLGA) (Mus musculus, UniProt Q571F8); test: Glutaminase activity, Amplex UltraRed fluorescent assay; type: biochemical; settings: for activity against GLS2 (mLGA) relative to GLS1 isoforms: fold less activity against GLS2 than GLS1 (hKGAΔ1, mGAC)
T4 sequence (Q571F8 15-602): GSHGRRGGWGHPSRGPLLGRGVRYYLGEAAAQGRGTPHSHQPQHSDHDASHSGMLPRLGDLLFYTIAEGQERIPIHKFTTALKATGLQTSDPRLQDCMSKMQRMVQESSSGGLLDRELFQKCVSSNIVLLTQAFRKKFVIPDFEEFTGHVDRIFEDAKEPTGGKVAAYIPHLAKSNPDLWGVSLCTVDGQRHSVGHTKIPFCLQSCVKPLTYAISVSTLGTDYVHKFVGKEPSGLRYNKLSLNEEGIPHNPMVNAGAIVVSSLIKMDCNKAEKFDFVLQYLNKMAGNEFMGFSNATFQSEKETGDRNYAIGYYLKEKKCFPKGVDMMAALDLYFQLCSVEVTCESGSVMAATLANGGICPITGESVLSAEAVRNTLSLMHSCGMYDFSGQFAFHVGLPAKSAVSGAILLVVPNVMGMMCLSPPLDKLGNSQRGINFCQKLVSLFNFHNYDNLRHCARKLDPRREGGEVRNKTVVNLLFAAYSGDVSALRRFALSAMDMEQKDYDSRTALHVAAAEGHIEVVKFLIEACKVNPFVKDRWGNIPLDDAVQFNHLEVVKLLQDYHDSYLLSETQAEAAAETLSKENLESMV

[7] = molecular target: T5, mouse c-type glutaminase (mGAC) (Mus musculus, UniProt D3Z7P3); test: as above; type: biochemical
T5 sequence (D3Z7P3 55-603 isoform D3Z7P3-2 limits assumed): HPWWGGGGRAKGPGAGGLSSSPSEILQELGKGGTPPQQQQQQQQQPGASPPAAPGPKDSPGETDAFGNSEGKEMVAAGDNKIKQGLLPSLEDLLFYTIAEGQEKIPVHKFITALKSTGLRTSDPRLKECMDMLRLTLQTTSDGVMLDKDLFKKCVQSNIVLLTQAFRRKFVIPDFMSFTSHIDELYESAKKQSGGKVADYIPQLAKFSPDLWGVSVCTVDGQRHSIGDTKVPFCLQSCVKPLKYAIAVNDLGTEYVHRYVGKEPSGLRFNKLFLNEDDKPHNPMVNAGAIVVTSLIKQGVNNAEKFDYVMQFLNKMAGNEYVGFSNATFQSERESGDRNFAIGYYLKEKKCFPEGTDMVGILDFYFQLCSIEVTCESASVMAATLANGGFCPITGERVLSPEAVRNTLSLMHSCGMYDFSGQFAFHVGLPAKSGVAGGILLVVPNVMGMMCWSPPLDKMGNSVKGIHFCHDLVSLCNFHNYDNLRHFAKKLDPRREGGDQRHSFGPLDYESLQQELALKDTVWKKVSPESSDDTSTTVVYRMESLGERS

[8] = in vivo; cited from earlier work
[9] = read-out: Avg. IC50, Table 6, analogs of apomorphine

Molecule: COc1ccc2cc3[n+](cc2c1OC)CCc1cc2c(cc1-3)OCO2 [Berberine chloride, 5,6-dihydro-9,10-dimethoxy-benzo[g]-[1,3] benzodioxolo[5,6-a]quinolizinium]
- IC50 [1]: > 100000 nM
- retention of biological (glutaminase) activity [1]: did not maintain activity

Molecule: CN1CCc2cccc3c2[C@@H]1Cc1ccc(O)c(O)c1-3 [S–Apomorphine hydrochloride]
- IC50 [1, 9]: 400 nM

Molecule: c1cc2c(cnc3c4cc5c(cc4ccc23)OCO5)c2c1OCO2 [Norsanguinarine chloride, [1,3]-benzodioxolo[5,6-c]-1,3-dioxolo[4,5-i]phenanthridine]
- IC50 [1]: > 100000 nM
- retention of biological (glutaminase) activity [1]: biological activity was lost

Molecule: O=c1c2ccccc2[se]n1-c1ccccc1 [Ebselen, 2-phenyl-1,2-benzisoselenazol-3[2H]-one]
- kinact [2]: 0.000367 s⁻¹
- kinact/KI [2]: 25200 M⁻¹ s⁻¹
- time- and concentration-dependence of glutaminase inactivation [2]: dependent on both concentration and time of incubation
- kinact ([2]; rate constant of inactivation): 0.000364 s⁻¹
- KI (inactivation) [2]: ~14 nM and 14 nM
- IC50 [3]: 8 nM
- Ki [4]: ~15 nM and 15 nM
- decrease in Vmax ([4]; as the concentration of inhibitor was increased): 6 fold
- Mode of inhibition [4]: Mixed non-competitive
- Mode of inhibition ([4]; listed as ebselen): mixed non-competitive inhibition
- solubility relative to BPTES [5]: more soluble than BPTES
- IC50 [6]: 100 nM
- activity against GLS2 (mLGA) relative to GLS1 isoforms [6]: 5 to 10 fold
- IC50 [7]: 20 nM

Molecule: O=C1c2ccccc2CN1c1ccccc1 [2-Phenyl isoindolin-1-one]
- IC50 [1]: > 100000 nM

Molecule: [N-]=[N+]=CC(=O)CC[C@H](N)C(=O)O [DON, 6-diazo-5-oxo-L-norleucine]
- kinact/KI [2]: 2.53 M⁻¹ s⁻¹
- time- and concentration-dependence of glutaminase inactivation [2]: both concentration and time of incubation dependent; also recorded: time-dependent and irreversible
- kinact ([2]; rate constant of inactivation): 1.39e-05 s⁻¹
- KI (inactivation) [2]: 6000 nM
- Mode of inhibition [4]: Time-dependent

Molecule: O=c1c2ccccc2on1-c1ccccc1 [2-Phenylbenzo[d] isoxazol-3(2H)-one]
- IC50 [1]: 20000 nM

Molecule: O=c1c2ccccc2sn1-c1ccccc1 [2-Phenylbenzo[d]isothiazol-3(2H)-one]
- IC50 [1]: 20 nM

Molecule: CN1CCc2cccc3c2C1Cc1ccc(O)c(O)c1-3 (stereo not shown) [Apomorphine hydrochloride, 5,6,6a,7-tetrahydro-6-methyl-4H-dibenzo[de,g] quinoline-10,11-diol]
- kinact/KI [2]: 13200 M⁻¹ s⁻¹
- kinact ([2]; rate constant of inactivation): 5.56e-05 s⁻¹
- KI (inactivation) [2]: 4 nM
- IC50 [1]: 600 nM
- Ki [4]: 2000 nM
- Mode of inhibition [4]: Competitive
- Mode of inhibition ([4]; listed as apomorphine): competitive inhibition
- solubility relative to BPTES [5]: more soluble than BPTES
- IC50 [6]: 300 nM
- IC50 [7]: 1000 nM

Molecule: COc1ccc2c(c[n+](C)c3c4cc5c(cc4ccc23)OCO5)c1OC [Chelerythrine chloride, 1,2-dimethoxy-N-methyl[1,3]benzodioxolo[5,6-c]phenanthridinium]
- kinact/KI [2]: 29200 M⁻¹ s⁻¹
- kinact ([2]; rate constant of inactivation): 0.000958 s⁻¹
- KI (inactivation) [2]: 30 nM
- IC50 [3]: 30 nM
- IC50 [1]: 30 nM
- Mode of inhibition [4]: Competitive
- Mode of inhibition ([4]; listed as chelerythrine): competitive inhibition
- solubility relative to BPTES [5]: more soluble than BPTES
- IC50 [6]: 300 nM
- activity against GLS2 (mLGA) relative to GLS1 isoforms [6]: 5 to 10 fold
- IC50 [7]: 70 nM

Molecule: COc1cc2c[n+](C)c3c4cc5c(cc4ccc3c2cc1OC)OCO5 [Nitidine chloride, 2,3-dimethoxy-N-methyl[1,3]benzodioxolo[5,6-c]phenanthridinium]
- IC50 [1]: 9000 nM
- retention of biological (glutaminase) activity ([1]; listed as nitidine): retained
- retention of biological (glutaminase) activity ([1]; listed as nitidine chloride): retained biological activity

Molecule: R(−)-Apocodeine hydrochloride
- loss of activity relative to apomorphine ([1]; hydroxyl replaced with methoxy): 10 fold
- IC50 [1, 9]: 4000 nM

Molecule: O=C(Cc1ccccc1)Nc1nnc(CCSCCc2nnc(NC(=O)Cc3ccccc3)s2)s1 [BPTES, bis-2-(5-phenylacetimido-1,2,4-thiadiazol-2-yl)ethyl sulfide]
- bioavailability [8]: low bioavailability

Molecule: C[n+]1cc2c3c(ccc2c2ccc4cc5c(cc4c21)OCO5)OCO3 [Sanguinarine chloride, 13-methyl-[1,3]-benzodioxolo[5,6-c]-1,3-dioxolo[4,5-i]phenanthridinium]
- IC50 [1]: 100 nM
- retention of biological (glutaminase) activity ([1]; listed as sanguinarine): retained
- retention of biological (glutaminase) activity ([1]; listed as sanguinarine chloride): retained biological activity

Molecule: R(−)-Propylnorapomorphine hydrochloride
- IC50 [1, 9]: 900 nM
